Data from patent publication US11452758B2, “Antimicrobial peptide derived from LL37 peptide and uses thereof” (INDUSTRY-ACADEMIC COOPERATION FOUNDATION, CHOSUN UNIVERSITY, priority 2018, dated 2022).
Values after ≈ are worked out from the molar mass of the structure shown. Where a SMILES comes first, the peptide text is derived from it.

Columns and labels:
A. baumannii #10 = format: cell-based, Acinetobacter baumannii; details: #10
Text: (§1) To compare the antimicrobial activity among the peptides produced by the method of Example 1, the inventors of the present invention measured the minimal growth inhibitory concentration (MIC), which is minimum concentration of the peptide not allowing any […] of bacterial cells.
(§2) Specifically, the bacterial strains described in the following Table 2 were purchased and cultured to a mid-log phase in MHB (Mueller Hinton Broth) medium. Then, after dilution to bacterial cell concentration of 2×10^5 cells/50 μl, the cells were inoculated to a microtiter plate (NUNC, USA). Thereafter, LL37-1, LL37-2, LL37-3 or LL37-4 peptide which has been synthesized in Example 1 above was subjected to serial dilution, ½ times for each, in a 96-well plate. After adding the peptides in an amount of 50 μl to the cell plate, the cells were cultured for 18 hours at 37° C. By using a microtiter plate reader (Merck Elisa reader, Germany), the absorbance was measured at a wavelength of 600 nm to determine the MIC value of each bacterial strain. As a control group, LL37 as a mother peptide was used and subjected to the same process as above to determine the MIC value of each strain.

A. baumannii #11 = format: cell-based, Acinetobacter baumannii; details: #11
Text: as §1, §2

A. baumannii #12 = format: cell-based, Acinetobacter baumannii; details: #12
Text: as §1, §2

A. baumannii #13 = format: cell-based, Acinetobacter baumannii; details: #13
Text: as §1, §2

A. baumannii #19 = format: cell-based, Acinetobacter baumannii; details: #19
Text: as §1, §2

A. baumannii #2 = format: cell-based, Acinetobacter baumannii; details: #2
Text: as §1, §2

A. baumannii #3 = format: cell-based, Acinetobacter baumannii; details: #3
Text: as §1, §2

A. baumannii #4 = format: cell-based, Acinetobacter baumannii; details: #4
Text: as §1, §2

A. baumannii #5 = format: cell-based, Acinetobacter baumannii; details: #5
Text: as §1, §2

A. baumannii #8 = format: cell-based, Acinetobacter baumannii; details: #8
Text: as §1, §2

A. baumannii #9 = format: cell-based, Acinetobacter baumannii; details: #9
Text: as §1, §2

A. baumannii KCTC 2508 = format: cell-based, Acinetobacter baumannii; details: for Minimal inhibitory concentration: KCTC 2508, 18 h
Text: as §1, §2

S. typhimurium KCTC 1925 = format: cell-based, Salmonella typhimurium; details: KCTC 1925, 18 h
Text: as §1, §2

[1] = Cytotoxicity in normal cell line (MTT); format: cell-based, human; details: human
Method: To determine the cytotoxicity of the peptides produced by the method of Example 1 in normal cell line, cytotoxicity was measured by using normal human keratinocyte cell line (HaCaT) and normal human fibroblast cell line (Hs27).
Specifically, normal human keratinocyte (HaCaT) cells and normal human fibroblast (Hs27) cells, which have been cultured in DMEM medium containing 10% FBS (fetal bovine serum), were aliquoted in a microtiter plate to have 1×10^4 cells per well. After culturing them for 24 hours, the cells were subjected to a treatment with LL37, LL37-1, LL37-2, LL37-3 or LL37-4 peptide, each at concentration of 0.5, 1, 2, 4, 8, 16 or 32 μM/well, followed by reaction for 24 hours in a 5% CO2 incubator. After culture, a reaction solution containing 5 mg/ml MTT (Thiazolyl Blue Tetrazolium Bromide) dissolved in phosphate buffered saline (PBS) was added in an amount of 10 μl to each well and the reaction was allowed to occur for 1 hour. After that, the supernatant was discarded, and, by dissolving MTT crystals that are formed by adding 200 μl DMSO (dimethyl sulfoxide), the absorbance at 570 nm was measured to determine the cell survival ability.

[2] = test system: Acinetobacter baumannii KCTC 2508; assay: Low vacuum scanning electron microscopy (membrane-disrupting property); format: cell-based; details: peptide at MIC concentration, 30 minutes at 37° C.
Method: To specifically determine the degree of antimicrobial activity of the synthesized peptides of the present invention, the influence of mother peptide LL37 and homologous peptides LL37-1, LL37-2, LL37-3 and LL37-4 on bacteria membrane, i.e., membrane-disrupting property, was determined by low vacuum scanning electron microscopy.
Specifically, Acinetobacter baumannii KCTC 2508 cells were cultured to a mid-log phase in MHB medium, and then diluted to a cell concentration of 2×10^7 cells/ml in physiological saline containing 10% MHB medium. […] After that, by using 2.5% glutaraldehyde, the bacterial cells were fixed for 30 minutes at room temperature and then for 12 hours at 4° C. After carrying out washing with buffer, the cells were fixed again with […] and dehydrated in stepwise manner by using ethanol. After the dehydration, platinum coating was carried out and the cells were observed by low vacuum scanning electron microscopy.

[3] = test system: Human macrophage cells (U937) infected with Acinetobacter baumannii KCTC 2508; assay: Expression of inflammatory cytokines, Western blot and real time RT-PCR; format: cell-based; details: U937 infected with A. baumannii KCTC 2508, peptide added 1 hour after infection, sample after 9 hours
Method: To see whether or not a change in expression of inflammatory cytokines in macrophage is caused by the peptides that are prepared by the method of above Example 1, determination was made by Western blot and real time reverse transcription polymerase chain reaction.
Specifically, Acinetobacter baumannii KCTC 2508 cells were cultured to a mid-log phase in MHB medium, and then diluted to a cell concentration of 1×10^7 cells/ml in physiological saline. Human macrophage cells (U937) were then infected with the resulting cells in time-dependent manner to yield the first sample, and another macrophage cells were infected with Acinetobacter baumannii KCTC 2508 cells, which have been diluted to a concentration of 1×10^7 cells, and added with, 1 hour after the infection, mother peptide LL37 or the homologous peptide to collect the second sample after 9 hours. Both collected samples were treated with cell lysis buffer to obtain the supernatant (sup) and pellet (lysate). Thereafter, by Western blot and real time reverse transcription polymerase chain reaction, a change in the expression level of inflammatory cytokines was examined.

Row | SMILES | Minimal inhibitory concentration (A. baumannii #10) [µM] | Minimal inhibitory concentration (A. baumannii #11) [µM] | Minimal inhibitory concentration (A. baumannii #12) [µM] | Minimal inhibitory concentration (A. baumannii #13) [µM] | Minimal inhibitory concentration (A. baumannii #19) [µM] | Minimal inhibitory concentration (A. baumannii #2) [µM] | Minimal inhibitory concentration (A. baumannii #3) [µM] | Minimal inhibitory concentration (A. baumannii #4) [µM] | Minimal inhibitory concentration (A. baumannii #5) [µM] | Minimal inhibitory concentration (A. baumannii #8) [µM] | Minimal inhibitory concentration (A. baumannii #9) [µM] | Minimal inhibitory concentration (A. baumannii KCTC 2508) [µM] | Minimal inhibitory concentration (S. typhimurium KCTC 1925) [µM] | viability at 24 h, 0.5 µM ([1]; HaCaT keratinocyte cells) [%] | viability at 24 h, 1 µM ([1]; HaCaT keratinocyte cells) [%] | viability at 24 h, 2 µM ([1]; HaCaT keratinocyte cells) [%] | viability at 24 h, 4 µM ([1]; HaCaT keratinocyte cells) [%] | viability at 24 h, 8 µM ([1]; HaCaT keratinocyte cells) [%] | viability at 24 h, 16 µM ([1]; HaCaT keratinocyte cells) [%] | viability at 24 h, 32 µM ([1]; HaCaT keratinocyte cells) [%] | also measured
1 | CC[C@H](C)[C@H](NC(=O)[C@H](CCCCN)NC(=O)[C@H](CCC(=O)O)NC(=O)[C@H](CCCCN)NC(=O)[C@H](CO)NC(=O)[C@H](CCCCN)NC(=O)[C@H](CCCNC(=N)N)NC(=O)[C@H](Cc1ccccc1)NC(=O)[C@H](Cc1ccccc1)NC(=O)[C@H](CC(=O)O)NC(=O)CNC(=O)[C@H](CC(C)C)NC(=O)[C@@H](N)CC(C)C)C(=O)NCC(=O)N[C@@H](CCCCN)C(=O)N[C@@H](CCC(=O)O)C(=O)N[C@@H](Cc1ccccc1)C(=O)N[C@@H](CCCCN)C(=O)N[C@@H](CCCNC(=N)N)C(=O)N[C@H](C(=O)N[C@H](C(=O)N[C@@H](CCC(N)=O)C(=O)N[C@@H](CCCNC(=N)N)C(=O)N[C@H](C(=O)N[C@@H](CCCCN)C(=O)N[C@@H](CC(=O)O)C(=O)N[C@@H](Cc1ccccc1)C(=O)N[C@@H](CC(C)C)C(=O)N[C@@H](CCCNC(=N)N)C(=O)N[C@@H](CC(N)=O)C(=O)N[C@@H](CC(C)C)C(=O)N[C@H](C(=O)N1CCC[C@H]1C(=O)N[C@@H](CCCNC(=N)N)C(=O)N[C@H](C(=O)N[C@@H](CCC(=O)O)C(=O)N[C@@H](CO)C(N)=O)[C@@H](C)O)C(C)C)[C@@H](C)CC)C(C)C)[C@@H](C)CC [LL37] | 2 (≈ 8.98 µg/mL) | 2 (≈ 8.98 µg/mL) | 2 (≈ 8.98 µg/mL) | 2 (≈ 8.98 µg/mL) | 2 (≈ 8.98 µg/mL) | 2 (≈ 8.98 µg/mL) | 2 (≈ 8.98 µg/mL) | 2 (≈ 8.98 µg/mL) | 2 (≈ 8.98 µg/mL) | 2 (≈ 8.98 µg/mL) | 2 (≈ 8.98 µg/mL) | 2 (≈ 8.98 µg/mL) | 32 (≈ 144 µg/mL) | 99 | 99 | 96 | 98 | 99 | 83 | 17 | Minimal inhibitory concentration of antimicrobial peptide (A. baumannii KCTC 2508; KCTC 2508): 2 µM; viability at 24 h, 0.5 µM ([1]; Hs27 fibroblast cells): 95%; viability at 24 h, 1 µM ([1]; Hs27 fibroblast cells): 90%; viability at 24 h, 2 µM ([1]; Hs27 fibroblast cells): 90%; viability at 24 h, 4 µM ([1]; Hs27 fibroblast cells): 89%; viability at 24 h, 8 µM ([1]; Hs27 fibroblast cells): 90%; viability at 24 h, 16 µM ([1]; Hs27 fibroblast cells): 82%; viability at 24 h, 32 µM ([1]; Hs27 fibroblast cells): 19%; membrane-disrupting property (scanning electron microscopy) [2]: disruption of bacteria membrane; expression level of HMGB-1 and late cytokine (IL-1b and TNF-α) [3]: has increased more
2 | CC[C@H](C)[C@H](NC(=O)[C@H](CCCNC(=N)N)NC(=O)[C@H](CCC(N)=O)NC(=O)[C@@H](NC(=O)[C@@H](NC(=O)[C@H](CCCNC(=N)N)NC(=O)[C@H](CCCCN)NC(=O)[C@H](Cc1ccccc1)NC(=O)[C@H](CCC(=O)O)NC(=O)[C@@H](N)CCCCN)[C@@H](C)CC)C(C)C)C(=O)N[C@@H](CCCCN)C(=O)N[C@@H](CCCCN)C(=O)N[C@@H](Cc1ccccc1)C(=O)N[C@@H](CC(C)C)C(=O)N[C@@H](CCCNC(=N)N)C(=O)N[C@@H](CC(N)=O)C(N)=O [LL37-3, KEFKRIVQRIKKFLRN-NH2] (H-KEFKRIVQRIKKFLRN-NH2; N-terminus assumed) | 2 (≈ 4.21 µg/mL) | 2 (≈ 4.21 µg/mL) | 4 (≈ 8.41 µg/mL) | 2 (≈ 4.21 µg/mL) | 4 (≈ 8.41 µg/mL) | 4 (≈ 8.41 µg/mL) | 4 (≈ 8.41 µg/mL) | 4 (≈ 8.41 µg/mL) | 4 (≈ 8.41 µg/mL) | 2 (≈ 4.21 µg/mL) | 2 (≈ 4.21 µg/mL) | 16 (≈ 33.6 µg/mL) | 8 (≈ 16.8 µg/mL) | 96 | 100 | 101 | 98 | 98 | 104 | 104 | viability at 24 h, 0.5 µM ([1]; Hs27 fibroblast cells): 94%; viability at 24 h, 1 µM ([1]; Hs27 fibroblast cells): 92%; viability at 24 h, 2 µM ([1]; Hs27 fibroblast cells): 93%; viability at 24 h, 4 µM ([1]; Hs27 fibroblast cells): 90%; viability at 24 h, 8 µM ([1]; Hs27 fibroblast cells): 91%; viability at 24 h, 16 µM ([1]; Hs27 fibroblast cells): 93%; viability at 24 h, 32 µM ([1]; Hs27 fibroblast cells): 95%; membrane-disrupting property (scanning electron microscopy) [2]: disruption of bacteria membrane; expression level of HMGB-1 and late cytokine (IL-1b and TNF-α) [3]: increase in expression level of HMGB-1 and late cytokine is lower
